Columns and labels:
Type in all cases: cell-based
ACHN = assay: NCI tumor cell line screen (SRB assay); parameters: activity: dose or concentration left out as unconfirmed; conditions: Homo sapiens, read-out: PERCENT GROWTH
Protocol: (§1) The National Cancer Institute carried out the studies at the direction of the present inventor.
(§2) In the tests, the National Cancer Institute used the SRB (sulforhodamine B) assay as described by Skehan et al., (Journal of the National Cancer Institute, 82:13, Jul. 4, 1990, 1107-1112). Briefly, the assay is as follows. TCA-fixed cells were stained for 30 minutes with 0.4% (wt/vol) SRB dissolved in 1% acetic acid. At the end of the staining period, SRB was removed and cultures were quickly rinsed four times with 1% acetic acid to remove unbound dye. The acetic acid was poured directly into the culture wells from a beaker. […] Residual wash solution was removed by sharply flicking plates over a sink, which ensured the complete removal of rinsing solution. […] After being rinsed, the cultures were air dried until no standing moisture was visible. Bound dye was solubilized with 10 mM unbuffered Tris base (pH 10.5) for 5 minutes on a gyratory shaker.
(§3) Optical density (OD) was read in either a UVmax microtiter plate reader (Molecular Devices, Menlo Park, Calif.) or a Beckman DU-70 spectrophotometer. For maximum sensitivity, OD was measured at 564 nm. Because readings were linear with dye concentrations only below 1.8 OD units, however, suboptimal wavelengths were generally used, so that all samples in an experiment remained within the linear OD range. With most cell lines, wavelengths of approximately 490-530 nm worked well for this purpose.
(§4) Nine different non-small cell lung carcinoma cell lines, six different colon carcinoma cell lines, six different CNS (central nervous system) carcinoma cell lines, seven different melanoma cell lines, six different ovarian carcinoma cell lines, and eight different renal carcinoma cell lines were tested.

LOX IMVI = assay: NCI tumor cell line screen (SRB assay); parameters: activity: dose or concentration left out as unconfirmed; conditions: Homo sapiens, read-out: PERCENT GROWTH
Protocol: as §1, §2, §3, §4

RXF 393 = assay: NCI tumor cell line screen (SRB assay); parameters: activity: dose or concentration left out as unconfirmed; conditions: Homo sapiens, read-out: PERCENT GROWTH
Protocol: as §1, §2, §3, §4

PK-10 = assay: NCI tumor cell line screen (SRB assay); parameters: activity: dose or concentration left out as unconfirmed; conditions: Homo sapiens, read-out: PERCENT GROWTH
Protocol: as §1, §2, §3, §4

OVCAR-5 = assay: NCI tumor cell line screen (SRB assay); parameters: activity: dose or concentration left out as unconfirmed; conditions: Homo sapiens, read-out: PERCENT GROWTH
Protocol: as §1, §2, §3, §4

NCI-H460 = assay: NCI tumor cell line screen (SRB assay); parameters: activity: dose or concentration left out as unconfirmed; conditions: Homo sapiens, read-out: PERCENT GROWTH
Protocol: as §1, §2, §3, §4

HCT-116 = assay: NCI tumor cell line screen (SRB assay); parameters: activity: dose or concentration left out as unconfirmed; conditions: Homo sapiens, read-out: PERCENT GROWTH
Protocol: as §1, §2, §3, §4

U251 = assay: NCI tumor cell line screen (SRB assay); parameters: activity: dose or concentration left out as unconfirmed; conditions: Homo sapiens, U-251, read-out: PERCENT GROWTH
Protocol: as §1, §2, §3, §4

IGROV1 = assay: NCI tumor cell line screen (SRB assay); parameters: activity: dose or concentration left out as unconfirmed; conditions: Homo sapiens, IGROV-1, read-out: PERCENT GROWTH
Protocol: as §1, §2, §3, §4

SK-MEL-28 = assay: NCI tumor cell line screen (SRB assay); parameters: activity: dose or concentration left out as unconfirmed; conditions: Homo sapiens, read-out: PERCENT GROWTH
Protocol: as §1, §2, §3, §4

NCI-H23 = assay: NCI tumor cell line screen (SRB assay); parameters: activity: dose or concentration left out as unconfirmed; conditions: Homo sapiens, read-out: PERCENT GROWTH
Protocol: as §1, §2, §3, §4

OVCAR-3 = assay: NCI tumor cell line screen (SRB assay); parameters: activity: dose or concentration left out as unconfirmed; conditions: Homo sapiens, read-out: PERCENT GROWTH
Protocol: as §1, §2, §3, §4

SK-MEL-2 = assay: NCI tumor cell line screen (SRB assay); parameters: activity: dose or concentration left out as unconfirmed; conditions: Homo sapiens, read-out: PERCENT GROWTH
Protocol: as §1, §2, §3, §4

SF-295 = assay: NCI tumor cell line screen (SRB assay); parameters: activity: dose or concentration left out as unconfirmed; conditions: Homo sapiens, read-out: PERCENT GROWTH
Protocol: as §1, §2, §3, §4

[1] = tested on: human breast cancer MCF-7 cells; assay: Inhibition of clonogenic growth of breast cancer cells; conditions: for No. of Colonies (Mean ± S.D.): control 158.5 ± 12.2
Protocol: After additional incubation periods of 24 h and 48 h, cells were washed to remove the drug and were allowed to grow at 37° C. in a CO2 incubator. After 10 days, colonies consisting of 50 or more cells were counted.

SMILES: CCCCN1C(=O)CC(=O)N(CCCC)C1=S [Compound C1, 4,6(1H, 5H)-pyrimidinedione, 1,3-dibutyldihydro-2-thioxo]
- activity (ACHN; 10^-3.0 Molar): -3%
- activity at 100 µM (ACHN; 10^-4.0 Molar): 89%
- activity at 10 µM (ACHN; 10^-5.0 Molar): 107%
- activity at 1 µM (ACHN; 10^-6.0 Molar): 105%
- activity at 0.1 µM (ACHN; 10^-7.0 Molar): 99%
- activity (LOX IMVI; 10^-3.0 Molar): -100%
- activity at 100 µM (LOX IMVI; 10^-4.0 Molar): 65%
- activity at 10 µM (LOX IMVI; 10^-5.0 Molar): 102%
- activity at 1 µM (LOX IMVI; 10^-6.0 Molar): 106%
- activity at 0.1 µM (LOX IMVI; 10^-7.0 Molar): 101%
- activity (RXF 393; 10^-3.0 Molar): -85%
- activity at 100 µM (RXF 393; 10^-4.0 Molar): 43%
- activity at 10 µM (RXF 393; 10^-5.0 Molar): 86%
- activity at 1 µM (RXF 393; 10^-6.0 Molar): 93%
- activity at 0.1 µM (RXF 393; 10^-7.0 Molar): 93%
- activity (PK-10): -19%
- activity at 0.1 µM (PK-10): 94%
- activity at 1 µM (PK-10): 94%
- activity at 10 µM (PK-10): 98%
- activity at 100 µM (PK-10): 74%
- activity (OVCAR-5; 10^-3.0 Molar): -97%
- activity at 100 µM (OVCAR-5; 10^-4.0 Molar): 97%
- activity at 10 µM (OVCAR-5; 10^-5.0 Molar): 99%
- activity at 1 µM (OVCAR-5; 10^-6.0 Molar): 98%
- activity at 0.1 µM (OVCAR-5; 10^-7.0 Molar): 102%
- activity (NCI-H460; 10^-3.0 Molar): -54%
- activity at 100 µM (NCI-H460; 10^-4.0 Molar): 82%
- activity at 10 µM (NCI-H460; 10^-5.0 Molar): 97%
- activity at 1 µM (NCI-H460; 10^-6.0 Molar): 100%
- activity at 0.1 µM (NCI-H460; 10^-7.0 Molar): 99%
- activity (HCT-116; 10^-3.0 Molar): -100%
- activity at 100 µM (HCT-116; 10^-4.0 Molar): 48%
- activity at 10 µM (HCT-116; 10^-5.0 Molar): 118%
- activity at 1 µM (HCT-116; 10^-6.0 Molar): 111%
- activity at 0.1 µM (HCT-116; 10^-7.0 Molar): 109%
- activity (U251; 10^-3.0 Molar): -55%
- activity at 100 µM (U251; 10^-4.0 Molar): 54%
- activity at 10 µM (U251; 10^-5.0 Molar): 102%
- activity at 1 µM (U251; 10^-6.0 Molar): 111%
- activity at 0.1 µM (U251; 10^-7.0 Molar): 104%
- activity (IGROV1; 10^-3.0 Molar): -85%
- activity at 100 µM (IGROV1; 10^-4.0 Molar): 88%
- activity at 10 µM (IGROV1; 10^-5.0 Molar): 103%
- activity at 1 µM (IGROV1; 10^-6.0 Molar): 107%
- activity at 0.1 µM (IGROV1; 10^-7.0 Molar): 105%
- activity (SK-MEL-28; 10^-3.0 Molar): -75%
- activity at 100 µM (SK-MEL-28; 10^-4.0 Molar): 69%
- activity at 10 µM (SK-MEL-28; 10^-5.0 Molar): 108%
- activity at 1 µM (SK-MEL-28; 10^-6.0 Molar): 111%
- activity at 0.1 µM (SK-MEL-28; 10^-7.0 Molar): 110%
- activity (NCI-H23; 10^-3.0 Molar): -62%
- activity at 100 µM (NCI-H23; 10^-4.0 Molar): 63%
- activity at 10 µM (NCI-H23; 10^-5.0 Molar): 98%
- activity at 1 µM (NCI-H23; 10^-6.0 Molar): 103%
- activity at 0.1 µM (NCI-H23; 10^-7.0 Molar): 97%
- activity (OVCAR-3; 10^-3.0 Molar): -93%
- activity at 100 µM (OVCAR-3; 10^-4.0 Molar): 89%
- activity at 10 µM (OVCAR-3; 10^-5.0 Molar): 110%
- activity at 1 µM (OVCAR-3; 10^-6.0 Molar): 114%
- activity at 0.1 µM (OVCAR-3; 10^-7.0 Molar): 110%
- activity (SK-MEL-2; 10^-3.0 Molar): -55%
- activity at 100 µM (SK-MEL-2; 10^-4.0 Molar): 87%
- activity at 10 µM (SK-MEL-2; 10^-5.0 Molar): 100%
- activity at 1 µM (SK-MEL-2; 10^-6.0 Molar): 106%
- activity at 0.1 µM (SK-MEL-2; 10^-7.0 Molar): 110%
- activity (SF-295; 10^-3.0 Molar): -95%
- activity at 100 µM (SF-295; 10^-4.0 Molar): 47%
- activity at 10 µM (SF-295; 10^-5.0 Molar): 100%
- activity at 1 µM (SF-295; 10^-6.0 Molar): 100%
- activity at 0.1 µM (SF-295; 10^-7.0 Molar): 104%
- No. of Colonies (Mean ± S.D.) ([1]; 20 μg/ml, 24 hr): 24.5 ± 7.8
- No. of Colonies (Mean ± S.D.) ([1]; 20 μg/ml, 48 hr): 24.5 ± 6.1
- No. of Colonies (Mean ± S.D.) ([1]; 40 μg/ml, 24 hr): 13.5 ± 5.1
- No. of Colonies (Mean ± S.D.) ([1]; 40 μg/ml, 48 hr): 11.7 ± 1.2
- No. of Colonies (Mean ± S.D.) ([1]; 80 μg/ml, 24 hr): 3.0 ± 2.2
- No. of Colonies (Mean ± S.D.) ([1]; 80 μg/ml, 48 hr): 0 ± 0
- inhibition at 20 µg/mL ([1]; Homo sapiens, MCF7, 20 μg/ml, read-out: Percent Reduction (of colonies)): 84.5%
- inhibition at 40 µg/mL ([1]; Homo sapiens, MCF7, 40 μg/ml, read-out: Percent Reduction (of colonies)): 92.6%
- inhibition at 80 µg/mL ([1]; Homo sapiens, MCF7, 80 μg/ml, read-out: Percent Reduction (of colonies)): 100%
- tumor cell clonogenic growth ([1]; under the conditions employed): virtually complete elimination of tumor cell clonogenic growth

— patent US5869494A, “Uses for barbituric acid analogs” (priority 1997, dated 1999)
